The source of these data is ChEMBL document CHEMBL1151893, “Synthesis of analogs of forodesine HCl, a human purine nucleoside phosphorylase inhibitor-Part I” (Bioorg Med Chem Lett, 2009).

The target in the experiment is T1, Purine nucleoside phosphorylase (Homo sapiens, UniProt P00491).
T1 sequence (P00491 whole entry): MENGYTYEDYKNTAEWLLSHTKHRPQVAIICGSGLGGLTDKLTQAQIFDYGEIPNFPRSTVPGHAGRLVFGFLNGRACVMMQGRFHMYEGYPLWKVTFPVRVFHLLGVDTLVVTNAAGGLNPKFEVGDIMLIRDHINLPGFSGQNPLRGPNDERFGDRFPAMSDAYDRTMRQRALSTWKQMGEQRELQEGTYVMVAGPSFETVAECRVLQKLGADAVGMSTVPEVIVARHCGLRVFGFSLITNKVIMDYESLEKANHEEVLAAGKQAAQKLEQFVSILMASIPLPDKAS
In words: Inhibition of human purine nucleoside phosphorylase.
In turn, `O=c1[nH]cnc2cc([C@@H]3N[C@H](CO)[C@@H](O)[C@H]3O)[nH]c12` showed an IC50 of 100 nM.

`O=C(O)c1[nH]c2c(=O)[nH]cnc2c1[C@@H]1N[C@H](CO)[C@@H](O)[C@H]1O` registered an IC50 of 100 nM.

Molecule `O=c1[nH]cnc2c([C@@]3(CO)NC[C@H](O)[C@@H]3O)c[nH]c12` showed an IC50 of 100 nM.

As a reminder, the IC50 is the point on the concentration scale where inhibition reaches its midpoint. Lower therefore signals higher potency.
